The source of these data is ChEMBL document CHEMBL1146814, “Amidine derived 1,3-diazabuta-1,3-dienes as potential antibacterial and antifungal agents” (2004).

For assay [1], the system named is Escherichia coli. Put plainly: Antibacterial activity against Escherichia coli MTCC 42 measured through zone of inhibition; 21-25 mm. The assay is classed as functional.
Assay [2] relates to Bacillus cereus. Kind of assay: Antibacterial activity against Bacillus cereus MTCC 1272 measured through zone of inhibition; 16-20 mm. The assay is classed as functional.
Assay [3] relates to Pseudomonas aeruginosa. Kind of assay: Antibacterial activity against Pseudomonas aeruginosa MTCC 1034. measured through zone of inhibition; 16-20 mm. In kind it is functional.
Assay [4] relates to Bacillus subtilis. Kind of assay: Antibacterial activity against Bacillus subtilis MTCC 121 measured through zone of inhibition; 21-25 mm. The assay is classed as functional.
Assay [5] deals with Staphylococcus aureus. Kind of assay: Antibacterial activity against Staphylococcus aureus MTCC 1430 measured through zone of inhibition; 21-25 mm. The assay is classed as functional.
For assay [6], the system named is Candida albicans. Put plainly: Antifungal activity against Candida albicans MTCC 183 measured through zone of inhibition; Inactive. In kind it is functional, organism-based.
Assay [7] concerns Staphylococcus aureus. Kind of assay: Antibacterial activity against Staphylococcus aureus MTCC 1430 measured through zone of inhibition; 11-15 mm. The assay is classed as functional.
The test system of assay [8] is Aspergillus niger. Put plainly: Antifungal activity against Aspergillus niger MTCC 404 measured through zone of inhibition; 11-15 mm. The assay is classed as functional.
The test system of assay [9] is Aspergillus niger. Kind of assay: Antifungal activity against Aspergillus niger MTCC 404 measured through zone of inhibition; Inactive. The assay is classed as functional, organism-based.
Assay [10] has as its system Bacillus subtilis. Put plainly: Antibacterial activity against Bacillus subtilis MTCC 121 measured through zone of inhibition; 16-20 mm. The assay is classed as functional.
In assay [11] the test system is Bacillus cereus. Put plainly: Antibacterial activity against Bacillus cereus MTCC 1272 measured through zone of inhibition; 21-25 mm. The assay is classed as functional.
Assay [12] relates to Candida albicans. Kind of assay: Antifungal activity against Candida albicans MTCC 183 measured through zone of inhibition; 11-15 mm. The assay is classed as functional.
Assay [13] concerns Aspergillus niger. Put plainly: Antifungal activity against Aspergillus niger MTCC 404 measured through zone of inhibition; inactive. The assay is classed as functional, organism-based.
Assay [14] deals with Staphylococcus aureus. Kind of assay: Antibacterial activity against Staphylococcus aureus MTCC 1430 measured through zone of inhibition; Inactive. The assay is classed as functional, organism-based.
The test system of assay [15] is Bacillus cereus. Kind of assay: Antibacterial activity against Bacillus cereus MTCC 1272 measured through zone of inhibition; Inactive. The assay is classed as functional, organism-based.
Assay [16] deals with Pseudomonas aeruginosa. Put plainly: Antibacterial activity against Pseudomonas aeruginosa MTCC 1034. measured through zone of inhibition; Inactive. The assay is classed as functional, organism-based.
For assay [17], the system named is Bacillus subtilis. Put plainly: Antibacterial activity against Bacillus subtilis MTCC 121 measured through zone of inhibition; Inactive. The assay is classed as functional, organism-based.
The test system of assay [18] is Escherichia coli. Put plainly: Antibacterial activity against Escherichia coli MTCC 42 measured through zone of inhibition; Inactive. In kind it is functional, organism-based.
The subject of assay [19] is Bacillus cereus. Put plainly: Antibacterial activity against Bacillus cereus MTCC 1272 measured through zone of inhibition; 11-15 mm. The assay is classed as functional.
The test system of assay [20] is Pseudomonas aeruginosa. Put plainly: Antibacterial activity against Pseudomonas aeruginosa MTCC 1034. measured through zone of inhibition; 21-25 mm. The assay is classed as functional.
Assay [21] deals with Staphylococcus aureus. Put plainly: Antibacterial activity against Staphylococcus aureus MTCC 1430 measured through zone of inhibition; 16-20 mm. The assay is classed as functional.
For assay [22], the system named is Candida albicans. Put plainly: Antifungal activity against Candida albicans MTCC 183 measured through zone of inhibition; inactive. The assay is classed as functional, organism-based.
For assay [23], the system named is Candida albicans. Put plainly: Antifungal activity against Candida albicans MTCC 183 measured through zone of inhibition; 16-20 mm. In kind it is functional.

Calls of active or inactive are those of the source. No cut-off for these calls is given here.

As for `O=C(O)c1cn(C2CC2)c2cc(N3CCNCC3)c(F)cc2c1=O` [CIPROFLOXACIN], the Zone of inhibition in assay [1] amounted to 21 mm; in assay [2], 16 mm; in assay [3], 16 mm; in assay [4], 21 mm; in assay [5] it was 21 mm.
Consider `CCS/C(=N\C(=N\c1ccc(C)cc1)c1ccccc1)N1CCCCC1`, for which the Zone of inhibition in assay [1] is 21 mm; in [2], 16 mm; in assay [7], 11 mm; in assay [8], 11 mm; in assay [3] it was 16 mm; in assay [4] it was 21 mm. The Zone of inhibition result in assay [6] was “inactive”.
As to `CS/C(=N\C(=N\c1ccc(C)cc1)c1ccccc1)N1CCCCC1`, the Zone of inhibition in assay [1] was 21 mm; in assay [2], 16 mm; in assay [3] it was 16 mm; in assay [10] it was 16 mm; in assay [5] it was 21 mm. In addition, the Zone of inhibition entry in assay [9] and in assay [6] was “inactive” each time.
As for `CCS/C(=N\C(=N\c1ccccc1)c1ccccc1)N1CCCCC1`, the Zone of inhibition in assay [1] came to 21 mm; in [11], 21 mm; in assay [12], 11 mm; in [3], 16 mm; in assay [10] it was 16 mm; in assay [5], 21 mm. For the same compound, the Zone of inhibition entry in assay [13] is “inactive”.
In the case of `C[S+](C)[O-]`, the Zone of inhibition entry in [9], in assay [14], in assay [6], in assay [15], in assay [16] and in assay [17] was “inactive” each time. For the same compound, the Zone of inhibition entry in [18] is “inactive”.
`CS/C(=N\C(=N\c1ccc(Cl)cc1)c1ccccc1)N1CCCCC1`: the Zone of inhibition was determined as 21 mm in [1]; 11 mm in [19]; 11 mm in assay [12]; 21 mm in assay [20]; 16 mm in assay [21]; 11 mm in assay [8]. In addition, in [10], the Zone of inhibition is 16 mm.
For the compound `CS/C(=N\C(=N\c1ccccc1)c1ccccc1)N1CCCCC1`, the Zone of inhibition was 25 mm in [1]; 16 mm in [2]; 16 mm in [21]; 16 mm in assay [3]; 16 mm in [10]. Moreover, the Zone of inhibition result in assay [13] and in assay [22] was “inactive” in each case.
Take `CCCCS/C(=N\C(=N\c1ccc(C)cc1)c1ccccc1)N1CCCCC1`: the Zone of inhibition in assay [1] worked out at 21 mm; in assay [2] it was 16 mm; in assay [20] it was 21 mm; in assay [8], 11 mm; in [10], 16 mm; in assay [5], 21 mm. For the same compound, the Zone of inhibition in assay [23] stood at 16 mm.
